Assay results published in ChEMBL document CHEMBL5113477, “Membrane acting Povarov-Doebner derived compounds potently disperse preformed multidrug resistant Gram-positive bacterial biofilms” (Eur J Med Chem, 2022).
Values after ≈ are worked out from the molar mass of the structure shown.

Key:
Type in all cases: functional
Staphylococcus aureus [1] = test: Antibacterial activity against Staphylococcus aureus ATCC 25923 assessed as reduction in visible bacterial growth incubated for 18 to 20 hrs by CLSI based broth microdilution analysis; details: time 18-20 hrs
Enterococcus faecalis [2] = test: (§1) Synergistic antibiofilm activity against vancomycin-resistant Enterococcus faecalis ATCC 51575 in TSB broth assessed as dispersal of glucose-induced biofilm by measuring Nitroxoline MBEC preincubated with glucose for 48 hrs followed by compound addition and measured after 24 hrs by crystal violet staining based checkerboard assay
Enterococcus faecium [3] = test: as §1, with “faecium” for “faecalis”, “700221” for “51575”, “[…]” for “Nitroxoline”
Enterococcus faecalis [4] = test: as §1, with “Bithionol” for “Nitroxoline”
Staphylococcus aureus [5] = test: (§2) Synergistic antibiofilm activity against methicillin-resistant Staphylococcus aureus USA 300 in TSB broth assessed as dispersal of glucose-induced biofilm by measuring fractional inhibitory concentration index preincubated with glucose for 48 hrs followed by compound addition and further incubated for 24 hrs in presence of Bithionol by crystal violet staining based checkerboard assay
Enterococcus faecium [6] = test: as §1, with “faecium” for “faecalis”, “700221” for “51575”
Enterococcus faecium [7] = test: Antibiofilm activity against vancomycin-resistant Enterococcus faecium ATCC 700221 in TSB broth assessed as dispersal of glucose-induced biofilm preincubated with glucose for 48 hrs followed by compound addition and measured after 24 hrs by crystal violet staining based analysis
Staphylococcus aureus [8] = test: as §1, with “methicillin-resistant Staphylococcus aureus USA 300” for “vancomycin-resistant Enterococcus faecalis ATCC 51575”
Staphylococcus aureus [9] = test: as §2, with “Bithionol MBEC” for “fractional inhibitory concentration index”, “measured after” for “further incubated for”, “hrs” for “hrs in presence of Bithionol”
Staphylococcus aureus [10] = test: as §2, with “Nitroxoline” for “Bithionol”
Enterococcus faecalis [11] = test: (§3) Synergistic antibiofilm activity against vancomycin-resistant Enterococcus faecalis ATCC 51575 in TSB broth assessed as dispersal of glucose-induced biofilm preincubated with glucose for 48 hrs followed by compound addition and further incubated for 24 hrs in presence of Bithionol by crystal violet staining based checkerboard assay
Enterococcus faecalis [12] = test: as §3, with “glucose-induced biofilm by measuring fractional inhibitory concentration index preincubated with” for “glucose-induced biofilm preincubated with”
Enterococcus faecium [13] = test: (§4) Synergistic antibiofilm activity against vancomycin-resistant Enterococcus faecium ATCC 700221 in TSB broth assessed as dispersal of glucose-induced biofilm by measuring fractional inhibitory concentration index preincubated with glucose for 48 hrs followed by compound addition and further incubated for 24 hrs in presence of Nitroxoline by crystal violet staining based checkerboard assay
Enterococcus faecalis [14] = test: Antibiofilm activity against vancomycin-resistant Enterococcus faecalis ATCC 51575 in TSB broth assessed as dispersal of glucose-induced biofilm preincubated with glucose for 48 hrs followed by compound addition and measured after 24 hrs by crystal violet staining based analysis
Enterococcus faecalis [15] = test: as §4, with “faecalis” for “faecium”, “51575” for “700221”
Enterococcus faecium [16] = test: as §4, with “biofilm” for “biofilm by measuring fractional inhibitory concentration index”
Enterococcus faecium [17] = test: as §4, with “Bithionol” for “Nitroxoline”
Enterococcus faecalis [18] = test: as §3, with “Nitroxoline” for “Bithionol”
Enterococcus faecium [19] = test: as §3, with “faecium” for “faecalis”, “700221” for “51575”
Staphylococcus aureus [20] = test: as §2, with “biofilm” for “biofilm by measuring fractional inhibitory concentration index”, “Nitroxoline” for “Bithionol”
Staphylococcus aureus [21] = test: as §2, with “biofilm” for “biofilm by measuring fractional inhibitory concentration index”
Staphylococcus aureus [22] = test: Antibiofilm activity against methicillin-resistant Staphylococcus aureus USA 300 in TSB broth assessed as dispersal of glucose-induced biofilm preincubated with glucose for 48 hrs followed by compound addition and measured after 24 hrs by crystal violet staining based analysis
Enterococcus faecalis [23] = test: Antibacterial activity against Enterococcus faecalis ATCC 29212 assessed as reduction in visible bacterial growth incubated for 18 to 20 hrs by CLSI based broth microdilution analysis; details: time 18-20 hrs
Staphylococcus aureus [24] = test: Antibacterial activity against methicillin-resistant Staphylococcus aureus ATCC 33592 assessed as reduction in visible bacterial growth incubated for 18 to 20 hrs by CLSI based broth microdilution analysis; details: time 18-20 hrs
Listeria monocytogenes = test: Antibacterial activity against Listeria monocytogenes ATCC 19115 assessed as reduction in visible bacterial growth incubated for 18 to 20 hrs by CLSI based broth microdilution analysis; details: time 18-20 hrs
Staphylococcus aureus [25] = test: Antibacterial activity against methicillin-resistant Staphylococcus aureus USA 300 assessed as reduction in visible bacterial growth incubated for 18 to 20 hrs by CLSI based broth microdilution analysis; details: time 18-20 hrs
Enterococcus faecium [26] = test: Antibacterial activity against vancomycin-resistant Enterococcus faecium ATCC 700221 assessed as reduction in visible bacterial growth incubated for 18 to 20 hrs by CLSI based broth microdilution analysis; details: time 18-20 hrs
Enterococcus faecalis [27] = test: Antibacterial activity against vancomycin-resistant Enterococcus faecalis ATCC 51575 assessed as reduction in visible bacterial growth incubated for 18 to 20 hrs by CLSI based broth microdilution analysis; details: time 18-20 hrs
Staphylococcus aureus [28] = test: Antibacterial activity against methicillin-resistant Staphylococcus aureus USA 300 (ARLG 1663) assessed as reduction in visible bacterial growth incubated for 18 to 20 hrs by CLSI based broth microdilution analysis; details: time 18-20 hrs
Staphylococcus aureus [29] = test: Antibacterial activity against methicillin-resistant Staphylococcus aureus USA 300 (ARLG 1568) assessed as reduction in visible bacterial growth incubated for 18 to 20 hrs by CLSI based broth microdilution analysis; details: time 18-20 hrs
Staphylococcus aureus [30] = test: Antibacterial activity against methicillin-resistant Staphylococcus aureus USA 300 (ARLG 1644) assessed as reduction in visible bacterial growth incubated for 18 to 20 hrs by CLSI based broth microdilution analysis; details: time 18-20 hrs
Staphylococcus aureus [31] = test: Antibacterial activity against methicillin-resistant Staphylococcus aureus USA 300 (ARLG 1649) assessed as reduction in visible bacterial growth incubated for 18 to 20 hrs by CLSI based broth microdilution analysis; details: time 18-20 hrs
Staphylococcus aureus [32] = test: Antibacterial activity against methicillin-resistant Staphylococcus aureus USA 300 (ARLG 1569) assessed as reduction in visible bacterial growth incubated for 18 to 20 hrs by CLSI based broth microdilution analysis; details: time 18-20 hrs
Staphylococcus aureus [33] = test: Antibacterial activity against methicillin-resistant Staphylococcus aureus USA 300 (ARLG 1567) assessed as reduction in visible bacterial growth incubated for 18 to 20 hrs by CLSI based broth microdilution analysis; details: time 18-20 hrs
Staphylococcus aureus [34] = test: Antibacterial activity against methicillin-resistant Staphylococcus aureus USA 300 (ARLG 1561) assessed as reduction in visible bacterial growth incubated for 18 to 20 hrs by CLSI based broth microdilution analysis; details: time 18-20 hrs
Staphylococcus aureus [35] = test: Antibacterial activity against methicillin-resistant Staphylococcus aureus USA 300 (ARLG 1665) assessed as reduction in visible bacterial growth incubated for 18 to 20 hrs by CLSI based broth microdilution analysis; details: time 18-20 hrs
Staphylococcus aureus [36] = test: Antibacterial activity against methicillin-resistant Staphylococcus aureus USA 300 (ARLG 1570) assessed as reduction in visible bacterial growth incubated for 18 to 20 hrs by CLSI based broth microdilution analysis; details: time 18-20 hrs
Staphylococcus aureus [37] = test: Induction of drug resistance in methicillin-resistant Staphylococcus aureus USA 300 assessed as fold increase in MIC treated daily for 30 days; details: time 30.0 day
Staphylococcus aureus [38] = test: Induction of drug resistance in methicillin-resistant Staphylococcus aureus ATCC 33592 assessed as fold increase in MIC treated daily for 30 days; details: time 30.0 day

`Oc1ccc([C@@H]2Nc3c(OC(F)(F)F)cccc3[C@H]3[C@@H]4CC[C@@H](C4)[C@H]32)cc1` showed an MIC (Staphylococcus aureus [1]) of 4 µg/mL (≈ 10.7 µM).

Work on `Oc1ccc([C@@H]2Nc3c(ccc(Cl)c3Cl)[C@H]3[C@@H]4CC[C@@H](C4)[C@H]32)cc1` yielded an MIC (Staphylococcus aureus [1]) of 4 µg/mL (≈ 11.1 µM).

In the case of `FC(F)(F)c1n[nH]cc1[C@@H]1Nc2ccc(S(F)(F)(F)(F)F)cc2[C@H]2[C@@H]3CC[C@@H](C3)[C@H]21`, the MBEC (Enterococcus faecalis [2]) was 2 µg/mL, the MBEC (Enterococcus faecium [3]) was 4 µg/mL and the MBEC (Enterococcus faecalis [4]) was 2 µg/mL. For the same molecule, the “fractional inhibitory concentration index (FICI)” value (Staphylococcus aureus [5]) was 0.28, the MBEC (Enterococcus faecium [6]) was 2 µg/mL and the MBEC (Enterococcus faecium [7]) was 32 µg/mL. For the same molecule, the MBEC (Staphylococcus aureus [8]) was 2 µg/mL, the MBEC (Staphylococcus aureus [9]) was 2 µg/mL and the “fractional inhibitory concentration index (FICI)” value (Staphylococcus aureus [10]) was 0.38. For the same molecule, the MBEC (Enterococcus faecalis [11]) was 1 µg/mL, the “fractional inhibitory concentration index (FICI)” value (Enterococcus faecalis [12]) was 0.28 and the “fractional inhibitory concentration index (FICI)” value (Enterococcus faecium [13]) was 0.16. The MBEC (Enterococcus faecalis [14]) was 32 µg/mL, the “fractional inhibitory concentration index (FICI)” value (Enterococcus faecalis [15]) was 0.25 and the MBEC (Enterococcus faecium [16]) was 1 µg/mL. For the same molecule, the “fractional inhibitory concentration index (FICI)” value (Enterococcus faecium [17]) was 0.28, the MBEC (Enterococcus faecalis [18]) was 1 µg/mL and the MBEC (Enterococcus faecium [19]) was 1 µg/mL. It also gave an MBEC (Staphylococcus aureus [20]) of 8 µg/mL, an MBEC (Staphylococcus aureus [21]) of 1 µg/mL and an MBEC (Staphylococcus aureus [22]) of 32 µg/mL.

In the case of `CSc1ccc2c(c1)[C@H]1[C@@H]3CC[C@@H](C3)[C@H]1[C@H](c1ccc(O)cc1)N2`, the MIC (Staphylococcus aureus [1]) was > 16 µg/mL.

`Oc1ccc([C@@H]2Nc3ccc(C(F)(F)F)cc3[C@H]3[C@@H]4CC[C@@H](C4)[C@H]32)cc1` gave an MIC (Enterococcus faecalis [23]) of 2 µg/mL (≈ 5.56 µM), an MIC (Staphylococcus aureus [1]) of 2 µg/mL (≈ 5.56 µM) and an MIC (Staphylococcus aureus [24]) of 2 µg/mL (≈ 5.56 µM). It also gave an MIC (Listeria monocytogenes) of 2 µg/mL (≈ 5.56 µM), an MIC (Staphylococcus aureus [25]) of 2 µg/mL (≈ 5.56 µM) and an MIC (Enterococcus faecium [26]) of 2 µg/mL (≈ 5.56 µM). For the same molecule, the MIC (Enterococcus faecalis [27]) was 2 µg/mL (≈ 5.56 µM).

With `Oc1ccc(-c2nc3ccc(S(F)(F)(F)(F)F)cc3c3c2[C@H]2CC[C@@H]3C2)cc1` the MIC (Staphylococcus aureus [1]) was > 16 µg/mL.

`Oc1ccc([C@@H]2Nc3ccccc3[C@H]3[C@@H]4CC[C@@H](C4)[C@H]32)cc1` was tested, and the MIC (Staphylococcus aureus [1]) was > 16 µg/mL.

Molecule `Oc1cccc([C@@H]2Nc3ccc(S(F)(F)(F)(F)F)cc3[C@H]3[C@@H]4CC[C@@H](C4)[C@H]32)c1` has an MIC (Staphylococcus aureus [1]) of 4 µg/mL (≈ 9.58 µM).

With `Oc1ccc([C@@H]2Nc3ccc(F)cc3[C@H]3[C@@H]4CC[C@@H](C4)[C@H]32)cc1` the MIC (Staphylococcus aureus [1]) was > 16 µg/mL.

For `Oc1cccc([C@@H]2Nc3ccc(SC(F)(F)F)cc3[C@H]3[C@@H]4CC[C@@H](C4)[C@H]32)c1`, the MIC (Staphylococcus aureus [1]) was 4 µg/mL (≈ 10.2 µM).

`CC(=O)NC[C@H]1CN(c2ccc(N3CCOCC3)c(F)c2)C(=O)O1` [LINEZOLID] was tested, and the MBC (Enterococcus faecalis [23]) was 64 µg/mL (≈ 190 µM), the MBC (Staphylococcus aureus [28]) was > 64 µg/mL and the MIC (Staphylococcus aureus [28]) was 1 µg/mL (≈ 2.96 µM). The MBC (Staphylococcus aureus [1]) was 64 µg/mL (≈ 190 µM), the MBC (Staphylococcus aureus [29]) was > 64 µg/mL and the MIC (Staphylococcus aureus [29]) was 1 µg/mL (≈ 2.96 µM). For the same molecule, the MBC (Staphylococcus aureus [24]) was 64 µg/mL (≈ 190 µM), the MBC (Staphylococcus aureus [30]) was > 64 µg/mL and the MIC (Staphylococcus aureus [30]) was 1 µg/mL (≈ 2.96 µM). The MBC (Staphylococcus aureus [31]) was > 64 µg/mL, the MIC (Staphylococcus aureus [31]) was 1 µg/mL (≈ 2.96 µM) and the MIC (Listeria monocytogenes) was 2 µg/mL (≈ 5.93 µM). The MBC (Staphylococcus aureus [32]) was 64 µg/mL (≈ 190 µM), the MIC (Staphylococcus aureus [32]) was 1 µg/mL (≈ 2.96 µM) and the MBC (Staphylococcus aureus [33]) was > 64 µg/mL. The MIC (Staphylococcus aureus [33]) was 1 µg/mL (≈ 2.96 µM), the MBC (Staphylococcus aureus [25]) was 128 µg/mL (≈ 379 µM) and the MBC (Staphylococcus aureus [34]) was 64 µg/mL (≈ 190 µM). For the same molecule, the MIC (Staphylococcus aureus [34]) was 1 µg/mL (≈ 2.96 µM), the MBC (Staphylococcus aureus [35]) was > 64 µg/mL and the MIC (Staphylococcus aureus [35]) was 1 µg/mL (≈ 2.96 µM). The MBC (Staphylococcus aureus [36]) was 64 µg/mL (≈ 190 µM), the MIC (Staphylococcus aureus [36]) was 1 µg/mL (≈ 2.96 µM) and the MBC (Enterococcus faecium [26]) was > 128 µg/mL. For the same molecule, the MIC (Enterococcus faecium [26]) was 1 µg/mL (≈ 2.96 µM) and the MBC (Enterococcus faecalis [27]) was > 128 µg/mL.

`C/C(=C\C(=O)OCCCCCCCCC(=O)O)C[C@@H]1OC[C@H](C[C@@H]2O[C@H]2[C@@H](C)[C@H](C)O)[C@@H](O)[C@H]1O` was tested, and the fold change (FC) (Staphylococcus aureus [37]) was > 60 and the fold change (FC) (Staphylococcus aureus [38]) was > 250.
